Results on four molecules are retold here after patent publication US4518790A, “15-Deoxy-16-hydroxy-16-vinyl and cyclopropyl substituted prostanoic acids and congeners” (American Cyanamid Company, priority 1980, dated 1985).

Common to all, as to assay type: in vivo, guinea pigs
The subject of assay [1] is bronchospasms elicited by 5-hydroxytryptamine. In words: Bronchodilator activity (Konzett assay) against bronchospasm elicited by intravenous 5-hydroxytryptamine. The settings on record: Cavia porcellus, guinea pig, three logarithmic cumulative doses, spasmogen 5-hydroxytryptamine i.v., read-out: Bronchodilator Activity (Konzett Assays) ED50, Spasmogenic Agent 5-hydroxytryptamine. On the procedure: (§1) The compounds of this invention are useful as bronchodilators for the treatment of asthma and chronic bronchitis. Bronchodilator activity is determined in guinea pigs against bronchospasms elicited by intravenous injections of 5-hydroxytryptamine, histamine or acetylcholine by the Konzett procedure. [See J. Lulling, P. Lievens, F. El Sayed and J. Prignot, Arzneimittel-Forschung, 18, 955 (1968).]
(§2) In Table 16 which follows bronchodilator activity for representative compounds of this invention against one or more of three spasmogenic agents is expressed as an ED50 determined from the results obtained with three logarithmic cummulative intravenous doses. In this assay, these compounds of this invention provide an effect of longer duration than does natural 1-PGE1 or 1-PGE2.

The subject of assay [2] is bronchospasms elicited by histamine. As to the kind of experiment: Bronchodilator activity (Konzett assay) against bronchospasm elicited by intravenous histamine. The settings on record: Cavia porcellus, guinea pig, three logarithmic cumulative doses, spasmogen histamine i.v., read-out: Bronchodilator Activity (Konzett Assays) ED50, Spasmogenic Agent histamine. On the procedure:
as §1, §2

In assay [3] the test system is bronchospasms elicited by acetylcholine. As to the kind of experiment: Bronchodilator activity (Konzett assay) against bronchospasm elicited by intravenous acetylcholine. Particulars: Cavia porcellus, guinea pig, three logarithmic cumulative doses, spasmogen acetylcholine i.v., read-out: Bronchodilator Activity (Konzett Assays) ED50, Spasmogenic Agent Acetylcholine. How it is done: as §1, §2

As usually defined, the ED50 is the dose at which the effect has come halfway, by size or by number of responders. For `C=CC(O)(C/C=C/[C@H]1[C@H](O)CC(=O)[C@@H]1C/C=C\CCCC(=O)O)CCCCC` (relative stereo) [9-oxo-11α,16-dihydroxy-16-vinyl-20-methyl-5-cis,13-trans-prostadienoic acid], the ED50 worked out at 2.06 µg/kg in assay [1], 2.3 µg/kg in assay [2] and 4.3 µg/kg in assay [3].

As for `C=CC(O)(C/C=C/[C@H]1[C@H](O)CC(=O)[C@@H]1C/C=C\CCCC(=O)OC)CCCC` (relative stereo) [methyl-9-oxo-11α, 16-dihydroxy-16-vinyl-5-cis, 13-trans prostadienoate], the results for the ED50 in assay [1], in assay [2] and in assay [3] were 0.354 µg/kg, 0.212 µg/kg and 0.302 µg/kg, respectively.

As for `C=CC(O)(C/C=C/[C@H]1[C@H](O)CC(=O)[C@@H]1C/C=C\CCCC(=O)O)CCCC` (relative stereo) [9-oxo-11α,16-dihydroxy-16-vinyl-5-cis,13-trans-prostadienoic acid], the ED50 in assay [1] stood at 0.252 µg/kg; in assay [2] it was 0.162 µg/kg; in assay [3] it was 0.78 µg/kg.

In the case of `C=CC(O)(C/C=C/[C@H]1[C@H](O)CC(=O)[C@@H]1CCCCCCC(=O)O)CCCC` (relative stereo) [9-Oxo-11α,16-dihydroxy-16-vinyl-13-trans-prostenoic Acid], the ED50 in assay [1] was 1.86 µg/kg; in assay [2] it was 1.11 µg/kg; in assay [3], 760 µg/kg.
